# What was measured:
# Type in all cases: in vivo
# Conditions in all cases: 0 to 100 scale (0 no effect, 100 complete control)
# [1] = system: barnyardgrass (Echinochloa crus-galli); assay: Test A preemergence, barnyardgrass
# Source text: (§1) Test A Seeds of plant species selected from barnyardgrass (Echinochloa crus-galli), kochia (Kochia scoparia), ragweed (common ragweed, Ambrosia elatior), ryegrass, Italian (Lolium multiflorum), foxtail, giant (Setaria faberii), and pigweed (Amaranthus retroflexus), were planted into a blend of loam soil and sand and treated preemergence with a directed soil spray using test chemicals formulated in a non-phytotoxic solvent mixture which included a surfactant.
# (§2) At the same time, plants selected from these weed species and also blackgrass (Alopecurus myosuroides), galium (catchweed bedstraw, Galium aparine), wheat (Triticum aestivum), and corn (Zea mays) were planted in pots containing the same blend of loam soil and sand and treated with postemergence applications of test chemicals formulated in the same manner. Plants ranged in height from 2 to 10 cm and were in the one- to two-leaf stage for the postemergence treatment. Treated plants and untreated controls were maintained in a greenhouse for approximately 10 days, after which time all treated plants were compared to untreated controls and visually evaluated for injury. Plant response ratings, summarized in Table A, are based on a 0 to 100 scale where 0 is no effect and 100 is complete control. A dash (-) response means no test result.
# [2] = system: kochia (Kochia scoparia); assay: Test A preemergence, kochia
# Source text: as §1, §2
# [3] = system: ragweed (common ragweed, Ambrosia elatior); assay: Test A preemergence, ragweed
# Source text: as §1, §2
# [4] = system: ryegrass, Italian (Lolium multiflorum); assay: Test A preemergence, Italian ryegrass
# Source text: as §1, §2
# [5] = system: foxtail, giant (Setaria faberii); assay: Test A preemergence, giant foxtail
# Source text: as §1, §2
# [6] = system: pigweed (Amaranthus retroflexus); assay: Test A preemergence, pigweed
# Source text: as §1, §2
# [7] = system: barnyardgrass (Echinochloa crus-galli); assay: Test A postemergence, barnyardgrass
# Source text: as §1, §2
# [8] = system: kochia (Kochia scoparia); assay: Test A postemergence, kochia
# Source text: as §1, §2
# [9] = system: ragweed (common ragweed, Ambrosia elatior); assay: Test A postemergence, ragweed
# Source text: as §1, §2
# [10] = system: ryegrass, Italian (Lolium multiflorum); assay: Test A postemergence, Italian ryegrass
# Source text: as §1, §2
# [11] = system: foxtail, giant (Setaria faberii); assay: Test A postemergence, giant foxtail
# Source text: as §1, §2
# [12] = system: pigweed (Amaranthus retroflexus); assay: Test A postemergence, pigweed
# Source text: as §1, §2
# [13] = system: blackgrass (Alopecurus myosuroides); assay: Test A postemergence, blackgrass
# Source text: as §1, §2
# [14] = system: galium (catchweed bedstraw, Galium aparine); assay: Test A postemergence, galium
# Source text: as §1, §2
# [15] = system: wheat (Triticum aestivum); assay: Test A postemergence, wheat
# Source text: as §1, §2
# [16] = system: corn (Zea mays); assay: Test A postemergence, corn
# Source text: as §1, §2
# [17] = 125 g ai/ha, visual injury, approximately 10 days
# [18] = 500 g ai/ha, visual injury, approximately 10 days
Compound,"Plant response rating, Barnyardgrass ([1]; 31 g ai/ha)","Plant response rating, Barnyardgrass ([1]; 125 g ai/ha)","Plant response rating, Kochia ([2]; 31 g ai/ha)","Plant response rating, Kochia ([2]; 125 g ai/ha)","Plant response rating, Ragweed ([3]; 31 g ai/ha)","Plant response rating, Ragweed ([3]; 125 g ai/ha)","Plant response rating, Ryegrass, Italian ([4]; 31 g ai/ha)","Plant response rating, Ryegrass, Italian ([4]; 125 g ai/ha)","Plant response rating, Foxtail, Giant ([5]; 125 g ai/ha)","Plant response rating, Pigweed ([6]; 125 g ai/ha)","Plant response rating, Barnyardgrass [7, 17]","Plant response rating, Kochia [8, 17]","Plant response rating, Ragweed [9, 17]","Plant response rating, Ryegrass, Italian [10, 17]","Plant response rating, Foxtail, Giant [11, 17]","Plant response rating, Pigweed [12, 17]","Plant response rating, Blackgrass [13, 17]","Plant response rating, Galium [14, 17]","Plant response rating, Wheat [15, 17]","Plant response rating, Corn [16, 17]",also measured
"O=C1NCC(c2cccc(Oc3ncc(F)cc3F)c2)C1C(=O)Nc1cccc(F)c1F (single isomer, unassigned) [Compound 71]",0,70,0,30,0,0,0,0,90,80,70,20,30,0,70,50,0,50,0,20,"Plant response rating, Foxtail, Giant ([5]; 31 g ai/ha): 70; Plant response rating, Pigweed ([6]; 31 g ai/ha): 20; Plant response rating, Barnyardgrass ([7]; 31 g ai/ha): 30; Plant response rating, Kochia ([8]; 31 g ai/ha): 0; Plant response rating, Ragweed ([9]; 31 g ai/ha): 0; Plant response rating, Ryegrass, Italian ([10]; 31 g ai/ha): 0; Plant response rating, Foxtail, Giant ([11]; 31 g ai/ha): 20; Plant response rating, Pigweed ([12]; 31 g ai/ha): 0; Plant response rating, Blackgrass ([13]; 31 g ai/ha): 0; Plant response rating, Galium ([14]; 31 g ai/ha): 30; Plant response rating, Wheat ([15]; 31 g ai/ha): 0; Plant response rating, Corn ([16]; 31 g ai/ha): 0"
"CN1CC(c2cccc(Oc3ncc(F)cc3F)c2)C(C(=O)Nc2ccccc2F)C1=O (single isomer, unassigned) [Compound 72]",90,90,0,0,0,0,0,50,90,0,90,20,30,50,90,30,60,60,20,20,"Plant response rating, Foxtail, Giant ([5]; 31 g ai/ha): 90; Plant response rating, Pigweed ([6]; 31 g ai/ha): 0; Plant response rating, Barnyardgrass ([7]; 31 g ai/ha): 60; Plant response rating, Kochia ([8]; 31 g ai/ha): 0; Plant response rating, Ragweed ([9]; 31 g ai/ha): 0; Plant response rating, Ryegrass, Italian ([10]; 31 g ai/ha): 20; Plant response rating, Foxtail, Giant ([11]; 31 g ai/ha): 80; Plant response rating, Pigweed ([12]; 31 g ai/ha): 0; Plant response rating, Blackgrass ([13]; 31 g ai/ha): 20; Plant response rating, Galium ([14]; 31 g ai/ha): 40; Plant response rating, Wheat ([15]; 31 g ai/ha): 0; Plant response rating, Corn ([16]; 31 g ai/ha): 0"
"CN1CC(c2cccc(Oc3ncc(F)cc3F)c2)C(C(=O)Nc2cccc(F)c2F)C1=O (single isomer, unassigned) [Compound 73]",50,90,0,20,0,0,0,40,90,0,70,20,30,40,90,60,40,60,20,20,"Plant response rating, Foxtail, Giant ([5]; 31 g ai/ha): 80; Plant response rating, Pigweed ([6]; 31 g ai/ha): 0; Plant response rating, Barnyardgrass ([7]; 31 g ai/ha): 60; Plant response rating, Kochia ([8]; 31 g ai/ha): 0; Plant response rating, Ragweed ([9]; 31 g ai/ha): 0; Plant response rating, Ryegrass, Italian ([10]; 31 g ai/ha): 0; Plant response rating, Foxtail, Giant ([11]; 31 g ai/ha): 60; Plant response rating, Pigweed ([12]; 31 g ai/ha): 50; Plant response rating, Blackgrass ([13]; 31 g ai/ha): 0; Plant response rating, Galium ([14]; 31 g ai/ha): 50; Plant response rating, Wheat ([15]; 31 g ai/ha): 20; Plant response rating, Corn ([16]; 31 g ai/ha): 20"
"CN1CC(c2cccc(Oc3ncc(F)cc3F)c2)C(C(=O)Nc2ccc(F)c(F)c2F)C1=O (single isomer, unassigned) [Compound 74]",70,90,0,40,0,0,30,80,100,80,90,50,20,30,80,60,20,70,20,20,"Plant response rating, Foxtail, Giant ([5]; 31 g ai/ha): 90; Plant response rating, Pigweed ([6]; 31 g ai/ha): 0; Plant response rating, Barnyardgrass ([7]; 31 g ai/ha): 60; Plant response rating, Kochia ([8]; 31 g ai/ha): 20; Plant response rating, Ragweed ([9]; 31 g ai/ha): 0; Plant response rating, Ryegrass, Italian ([10]; 31 g ai/ha): 0; Plant response rating, Foxtail, Giant ([11]; 31 g ai/ha): 70; Plant response rating, Pigweed ([12]; 31 g ai/ha): 0; Plant response rating, Blackgrass ([13]; 31 g ai/ha): 0; Plant response rating, Galium ([14]; 31 g ai/ha): 40; Plant response rating, Wheat ([15]; 31 g ai/ha): 0; Plant response rating, Corn ([16]; 31 g ai/ha): 0"
O=C1NCC(c2cccc(OCC3CC3)c2)C1C(=O)Nc1ccc(F)cc1F (stereo not drawn) [Compound 3],,40,,0,,0,,0,60,0,10,0,0,0,20,0,0,20,0,0,"Plant response rating, Barnyardgrass ([1]; 500 g ai/ha): 70; Plant response rating, Kochia ([2]; 500 g ai/ha): 20; Plant response rating, Ragweed ([3]; 500 g ai/ha): 0; Plant response rating, Ryegrass, Italian ([4]; 500 g ai/ha): 20; Plant response rating, Foxtail, Giant ([5]; 500 g ai/ha): 80; Plant response rating, Pigweed ([6]; 500 g ai/ha): 0; Plant response rating, Barnyardgrass [7, 18]: 60; Plant response rating, Kochia [8, 18]: 40; Plant response rating, Ragweed [9, 18]: 0; Plant response rating, Ryegrass, Italian [10, 18]: 30; Plant response rating, Foxtail, Giant [11, 18]: 70; Plant response rating, Pigweed [12, 18]: 0; Plant response rating, Blackgrass [13, 18]: 30; Plant response rating, Galium [14, 18]: 40; Plant response rating, Wheat [15, 18]: 20; Plant response rating, Corn [16, 18]: 20"
CC1(COc2cccc(C3CNC(=O)C3C(=O)Nc3cccc(F)c3F)c2)COC1 (stereo not drawn) [Compound 13],,0,,0,,0,,0,80,0,0,0,0,0,40,0,0,0,0,0,"Plant response rating, Barnyardgrass ([1]; 500 g ai/ha): 80; Plant response rating, Kochia ([2]; 500 g ai/ha): 0; Plant response rating, Ragweed ([3]; 500 g ai/ha): 0; Plant response rating, Ryegrass, Italian ([4]; 500 g ai/ha): 0; Plant response rating, Foxtail, Giant ([5]; 500 g ai/ha): 90; Plant response rating, Pigweed ([6]; 500 g ai/ha): 0; Plant response rating, Barnyardgrass [7, 18]: 60; Plant response rating, Kochia [8, 18]: 20; Plant response rating, Ragweed [9, 18]: 0; Plant response rating, Ryegrass, Italian [10, 18]: 30; Plant response rating, Foxtail, Giant [11, 18]: 70; Plant response rating, Pigweed [12, 18]: 0; Plant response rating, Blackgrass [13, 18]: 20; Plant response rating, Galium [14, 18]: 40; Plant response rating, Wheat [15, 18]: 0; Plant response rating, Corn [16, 18]: 0"
